The source of these data is patent US11077123B2 (priority 2016, dated 2021).

Assay [1] concerns pESI conjugation between S. Infantis 119944 (donor) and E. coli ORN172 (recipient). Nature of the assay: pESI conjugation (mating) experiments on LB agar plates. Format: cell-based, Salmonella enterica serovar Infantis; E. coli. The following applies: pESI transfer, LB agar plates supplemented with 2% (w/v) of the substance.
Assay [2] has as its system S. Infantis and the E. coli strains. Nature of the assay: Bacterial viability / growth in the conjugation experiments. Format: cell-based, Salmonella enterica serovar Infantis; E. coli. The settings on record: 2% of the substance.
The next assay concerns Clostridium perfringens. The settings on record: varying concentrations; cited from earlier work.

On to `C[C@H](CCC(=O)O)[C@H]1CC[C@H]2[C@@H]3[C@H](O)C[C@@H]4C[C@H](O)CC[C@]4(C)[C@H]3CC[C@]12C` [chenodeoxycholic acid], for which the conjugation frequency result in assay [1] was “transconjugants in the presence of these regents were not produced”. Moreover, the “growth (rate) of S. Infantis and the E. coli strains” value in assay [2] is “inhibited the growth”.
For the molecule `C[C@H](CCC(=O)O)[C@H]1CC[C@H]2[C@@H]3[C@H](O)C[C@@H]4C[C@H](O)CC[C@]4(C)[C@H]3C[C@H](O)[C@]12C` [cholic acid], the conjugation frequency result in assay [1] is given as “significant decrease”.
For the molecule `C[C@H](CCC(=O)NCC(=O)O)[C@H]1CC[C@H]2[C@@H]3[C@H](O)C[C@@H]4C[C@H](O)CC[C@]4(C)[C@H]3CC[C@]12C` [glycine-conjugated chenodeoxycholic acid], the bacterial viability result with Clostridium perfringens is given as “significantly reduced bacterial viability”.
For `NCC(=O)O` [glycine], the conjugation frequency result in assay [1] is recorded as “transconjugants in the presence of these regents were not produced”. In assay [2], the “growth (rate) of S. Infantis and the E. coli strains” value is on record as “inhibited the growth”.
The corresponding values for `C[C@H](CCC(=O)O)[C@H]1CC[C@H]2[C@@H]3CC[C@@H]4C[C@H](O)CC[C@]4(C)[C@H]3CC[C@]12C` [lithocholic acid, 3α-hydroxy-5β-cholan-24-oic acid] are “significant decrease” and “no effect on the growth rate”.
For `NCCS(=O)(=O)O` [taurine, 2-aminoethanesulfonic acid], in that order: “inhibit conjugation to a lower degree” and “no effect on the growth rate”.
In the case of `C[C@H](CCC(=O)NCCS(=O)(=O)O)[C@H]1CC[C@H]2[C@@H]3[C@H](O)C[C@@H]4C[C@H](O)CC[C@]4(C)[C@H]3CC[C@]12C` [taurine-conjugated chenodeoxycholic acid], the bacterial viability result in the assay on Clostridium perfringens is “significantly reduced bacterial viability”.
